Assay results from patent US11938177B2, “Peptide vaccine formulations and use thereof for inducing an immune response” (The United States of America, as represented by the …, priority 2016, dated 2024).
Square brackets hold non-standard residues; d marks the D form. Ends that are not written are not given here. Peptide text beside a SMILES is read from it. Lys(N3) = [N-]=[N+]=NCCCC[C@H](N)C(=O)O

How the values were obtained:
[1] = Solubility of synthetic long peptides in aqueous buffer (PBS pH 7.4, bright field microscopy); type: physicochemical
Experimental: FIGS. 2A-2E: Impact of adjuvant and the composition of amino acids flanking minimal epitopes on CD8 T cell responses induced by synthetic long peptide vaccines. (2A and 2B) Synthetic long peptides delivering the minimal CTL epitope from Ovalbumin (OVA257-264: SIINFEKL, SEQ ID NO: 1) were prepared with either hydrophobic or hydrophilic flanking sequences to provide insoluble (LSI, 1) or soluble (LSS, 3) peptides alone or linked to a TLR-7/8a through a C-terminal azide to yield a LSI-7/8a (2) and LSS-7/8a (4). Bright field microscopy images are shown of […] at 0.1 mg/mL in PBS at pH 7.4. (2C) The TLR-7/8a adjuvant was delivered as either a small molecule (7/8a, 5) or as a particle (PP-7/8a, 6) with the peptide antigens. (2D and 2E) Long peptides (4 nmol) alone or admixed with or covalently attached to adjuvant (4 nmol) were subcutaneously administered into the hind footpads of mice at days 0 and 14. At day 28, tetramer+ CD8 T cell responses were evaluated from whole blood of mice (n=5-25).
FIGS. 4A-4G: Influence of neoantigen flanking sequences on long peptide morphology and CD8 T cell immunity. (4A) The sequences flanking two minimal CD8 T cell neoantigen epitopes, Reps1 (7) and Irgq (9), derived from murine MC38 […] were exchanged to create two chimeric synthetic long peptides, Reps1 FS (8) and Irgq FS (10). Bright field microscopy images are shown for peptides 7-10 at 0.1 mg/mL in PBS at pH 7.4. (4B-4G) The synthetic long peptide-based neoantigens (7-10) (4 nmol) were admixed with adjuvant (4 nmol) and subcutaneously administered into the hind footpads of C57BL/6 mice at days 0 and 14 and on day 28 whole blood was assessed for the percent of total CD8 T cells that were dextramer^+ for Reps1 (4B) and Irgq (4C); the percent of total CD8 T cells that were IFNγ following stimulation with either Reps1 (4D) or Irgq (4E); or, the percent of total CD4 T cells that were IFNγ following stimulation with either Reps1 (4F) or Irgq (4G). Data on log scale are reported as geometric mean with 95% confidence interval (CI). Data are representative of two or more independent experiments. Student's T test was used for comparison of 2 groups; ns, not significant (P>0.05); *, P<0.05; **, P<0.01.
Soluble: Capable of becoming molecularly or ionically dispersed in a solvent to form a homogeneous solution. […] Solubility can be determined visually or using spectroscopic techniques. Turbidity measurements allow for solubility determination indirectly by using a spectrophotometer to measure absorbance in the visible spectrum, typically between 300-500 nm; insoluble materials scatter light that reduces transmittance, leading to increases in measured absorbance (OD). Herein, absorbance measurements at 490 nm were used to assess solubility. […]

[2] = side chain group (epsilon amine; gamma carboxylic acid); cited from earlier work

## CC[C@H](C)[C@H](NC(=O)[C@@H](NC(=O)[C@@H](N)CO)[C@@H](C)CC)C(=O)N[C@@H](CC(N)=O)C(=O)N[C@@H](Cc1ccccc1)C(=O)N[C@@H](CCC(=O)O)C(=O)N[C@@H](CCCCN)C(=O)N[C@@H](CC(C)C)C(=O)N[C@H](C(=O)N[C@@H](Cc1ccccc1)C(=O)N1CCC[C@H]1C(=O)N[C@@H](CCCNC(=N)N)C(=O)N[C@@H](CO)C(=O)N1CCC[C@H]1C(=O)N[C@H](C(=O)N[C@H](C(=O)N[C@@H](Cc1ccccc1)C(=O)N[C@@H](Cc1ccc(O)cc1)C(=O)N[C@@H](CC(N)=O)C(=O)N[C@H](C(=O)N1CCC[C@H]1C(=O)N1CCC[C@H]1C(=O)N[C@@H](CCSC)C(=O)N1CCC[C@H]1C(=O)N[C@@H](CC(C)C)C(=O)N1CCC[C@H]1C(=O)N1CCC[C@H]1C(=O)N[C@@H](CO)C(=O)N[C@@H](CCC(N)=O)C(=O)N[C@@H](CC(C)C)C(=O)N[C@@H](CCCCN=[N+]=[N-])C(=O)O)[C@@H](C)CC)C(C)C)[C@@H](C)O)C(C)C [LSI]
[1]
  solubility in aqueous buffers: insoluble

## CC[C@H](C)[C@H](NC(=O)[C@@H](NC(=O)[C@@H](N)CO)[C@@H](C)CC)C(=O)N[C@@H](CC(N)=O)C(=O)N[C@@H](Cc1ccccc1)C(=O)N[C@@H](CCC(=O)O)C(=O)N[C@@H](CCCCN)C(=O)N[C@@H](CC(C)C)C(=O)N[C@H](C(=O)N[C@@H](CCCCN)C(=O)N1CCC[C@H]1C(=O)N[C@@H](CCCNC(=N)N)C(=O)N[C@@H](CO)C(=O)N1CCC[C@H]1C(=O)N[C@H](C(=O)N[C@@H](CCCNC(=N)N)C(=O)N[C@@H](Cc1ccccc1)C(=O)N[C@@H](CC(=O)O)C(=O)N[C@@H](CC(N)=O)C(=O)N[C@@H](CO)C(=O)N[C@@H](CCCCN)C(=O)N1CCC[C@H]1C(=O)N[C@@H](CO)C(=O)N1CCC[C@H]1C(=O)N[C@@H](CCC(=O)O)C(=O)N1CCC[C@H]1C(=O)N[C@@H](CCCCN)C(=O)N[C@@H](CO)C(=O)N[C@@H](CCC(N)=O)C(=O)N[C@@H](CC(=O)O)C(=O)N[C@@H](CCCCN=[N+]=[N-])C(=O)O)[C@@H](C)O)C(C)C [LSS] (H-SIINFEKLVKPRSPTRFDNSKPSPEPKSQD[Lys(N3)]-OH)
[1]
  solubility in aqueous buffers: soluble

## NCCCC[C@H](N)C(=O)O [Lysine]
[2]
  pKa: ~10.7

## GRVLELFRAAALLNSAVLQIMELCGATR [Irgq FS]
[1]
  solubility in aqueous buffers: assembled into an aggregate

## KARDETAQLANDVVLGAAPLFVPPAD [Reps1 FS]
[1]
  solubility in aqueous buffers: water-soluble
